For one series, the system named is normal bone marrow cells. The experiment in a line: Normal bone marrow samples, viability. The note with it: 72 hours. The format is cell-based, human.
In a further series the test system is KG-1 cells. The experiment in a line: Cell cycle analysis of synchronized KG-1 cells by flow cytometry. The format is cell-based. How it is done: KG-1 cells were synchronized at prometaphase using a modified thymidine plus nocodazole block (Whitfield et al. identification of genes periodically expressed in the human cell cycle and their expression in tumors. Mol Biol Cell. 2002; 13(6):1977-2000). Briefly, KG-1 cells were treated with 2 mM thymidine for 30 h, washed with PBS and released from G1/S block in fresh media for 4 h. The cells were incubated with 300 nM nocodazole (Sigma) for 13 h. Compound A or DMSO was added 3 hours before release. The synchronized cells were washed with PBS and released from the mitotic block in fresh media containing Compound A or DMSO. To analyze DNA content by flow cytometry, cells were harvested, fixed in 70% ice-cold ethanol for at least 1 hour at −20° C., and then incubated in propidium iodide (PI) staining buffer (PBS containing RNase A (50 μg/ml), 0.1% sodium citrate, and PI ([…])) for 30 minutes at RT. Cells were analyzed on a FACS Calibur flow cytoneter (BD Biosciences). Cell-cycle distribution was determined using FlowJo software (TreeStar).
CREB regulates the cell cycle by virtue of transcriptionally regulating the expression of key cell cycle genes. Thus, the effect of Compound A on this aspect of cell function was also examined. […]
A general note: In flow cytometry, cells or beads pass a laser one at a time.

Series [1] deals with CREB-driven promoter (CRE). The series is described as follows: CREB-driven (CRE) luciferase reporter in KG-1 cells. It counts as cell-based. The note with it: 6 hours. How it is done:
KG-1 cell lines were created to express luciferase in a CREB-dependent or non-CREB-dependent fashion using lentiviral gene delivery. Cells were sorted for mCherry expression by flow cytometry and selected with puromycin. Luciferase activity was measured on a […] using the Promega Luciferase Activity Kit (Promega) per manufacturer's instructions following six hours of treatment with Compound A or 0.1% DMSO. The split Renilla luciferase complementation assay has been described previously (Li BX, and Xiao X. Discovery of a small-molecule inhibitor of the KIX-KID interaction. Chembiochem: a European journal of chemical biology. 2009; 10(17):2721-4). In this assay, the KID and KIX domains were fused to the N- and C-terminal regions of Renilla luciferase, respectively. Once KIX binds phosphorylated KID, the Renilla luciferase regions were brought together, resulting in luciferase activity.
To test the ability of Compound A to disrupt CREB-CBP binding in cells, a split Renilla luciferase complementation assay was performed. […] This early timepoint was selected to permit accurate reporter gene activity measurement prior to the onset of anticipated global cell dysfunction or death induced by Compound A. Treatment with 3 μM Compound A reduced luciferase activity by 33.2±7.7% at this timepoint. […] Thus, Compound A inhibits CREB function through disruption of CREB:CBP interaction.
A general note: A reporter such as luciferase makes a cellular process visible.

The test system of series [2] is Bcl-2, Mcl-1 expression in KG-1 cells. The experiment in a line: Western blot of anti-apoptotic proteins in KG-1 cells. The format is cell-based. How it is done: Cells were lysed in RIPA buffer (Sigma), and the protein concentrations were determined by BCA assay (Thermo Scientific Pierce). Lysates were solubilized in 6×SDS PAGE buffer and […] of protein was loaded into 6-15% SDS PAGE gels, pheresed, and then transferred onto […] PVDF membrane (Millipore). Primary antibodies were applied at a dilution of 1:1000. Anti-Bcl-2, -Bax, -Mcl-1, -Bcl-XL, -Cyclin A and -Cyclin D1 antibodies were purchased from Cell Signaling Technologies. Anti-total acetylated histone and -ac-H3K27 were purchased from Santa Cruz Biotechnologies. Anti-actin and -CREB antibodies were purchased from upstate. Secondary antibodies were used at a 1:2500 dilution and purchased from Thermo Scientific/Pierce. WesternBright ECL was used for image acquisition on Image Lab software (Bio-Rad).
The balance between pro- and anti-apoptotic protein expression contributes to cell fate decisions. CREB regulates the expression of several anti-apoptotic proteins, including Bcl-2, Bcl-XL and Mcl-1. Bcl-2 expression in particular is known to mediate resistance to chemotherapy and influence clinical outcome in a number of cancer types, including AML. The ability of Compound A to cause apoptosis by disrupting the CREB-driven expression of these anti-apoptotic proteins was examined. In HL-60 cells treated with Compound A, apoptosis is induced in a dose- and time-dependent manner. […]
Background: Immunoblotting shows a protein as a band on a membrane.

Series [3] has as its system normal bone marrow progenitor cells. The series is described as follows: Methylcellulose hematopoietic cell colony assay. The format is cell-based, human. Particulars: up to 10 mM, colonies counted on day 14. The procedure: Human bone marrow cells from non-leukemic patients were resuspended in a volume of 0.3 mL of IMDM with 20% FBS at 5×10^5 cells/mL and mixed with varying concentrations of the Compound A (10 pM to 10 mM in 0.1% DMSO) or 0.1% DMSO control. This was added to 3 mL of methylcellulose-containing growth factors IL-3, IL-6, G-CSF, erythropoietin, SCF (Methocult GF-H4434; Stem Cell Technology) and plated. The colonies were observed daily and counted on day 14.

“Also recorded” adds a separate entry of the source.

On to `N#Cc1ccc(NC(=O)c2cc3ccccc3cc2O)cc1` [Compound A, N-(4-cyanophenyl)-3-hydroxy-2-naphthamide], for which, in the series with normal bone marrow cells, the “viability of normal bone marrow cells” value was “did not significantly change”. In addition, in the series on KG-1 cells (4 hours following release), the “% cells in G1-phase” value amounted to 66.20±1.83%. Moreover, the “% cells in G1-phase” value in the series with KG-1 cells (8 hours following release) is listed as 55.41±0.59%. For the same compound, the “reduction of CREB-driven luciferase activity” value in series [1] (3 μM) was 33.2±7.7%. Also, the CREB-driven luciferase activity result in series [1] (KG-1 cells, 3, 10 and 30 μM) is recorded as “significantly decreased; also recorded: reduced by Compound A in a dose-dependent fashion”. Besides, in series [2], the Bcl-2 expression result is listed as “decreased Bcl-2 expression” and the Mcl-1 expression entry is “pronounced decrease in Mcl-1”. For the same compound, the colony formation result in series [3] is on record as “no significant decrease in colony formation”.

For the origin of these results see patent US20210205292A1, “INHIBITORS OF CREB-CBP INTERACTION FOR TREATMENT OF LEUKEMIA” (The Board of Trustees of the Leland Stanford Junior …, priority 2016, published 2021).
